In US20260274892A1, “MACROCYCLIC BROAD SPECTRUM ANTIBIOTICS” (RQx Pharmaceuticals, Inc., priority 2017, published 2026):

Assays:
[1] = test system: Methicillin Resistant Staphylococcus aureus strain USA 200; test: Minimum inhibitory concentration (MIC), CLSI broth micro-dilution, S. aureus; type: cell-based; settings: Staphylococcus aureus, MRSA / USA200, MRSA USA 200, cation adjusted Mueller Hinton Broth + 0.002% Tween-80, 35° C., 22 hours
Summary of the method: (§1)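 Antibacterial potency is measured as MIC by the CLSI broth dilution method. Bacteria at OD600 0.0005 in Tween-80-supplemented cation-adjusted Mueller Hinton broth face ten twofold compound dilutions for 22 h at 35° C.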

[2] = test system: Escherichia coli ATCC 25922; test: Minimum inhibitory concentration (MIC), CLSI broth micro-dilution, E. coli; type: cell-based; settings: Escherichia coli, ATCC25922, 22 h
Summary of the method: as §1

[3] = Table 6, cation adjusted Mueller Hinton Broth + 0.002% Tween-80, 35° C.

Compound	MIC ([1]; Table 6) [µM]	MIC [2, 3] [µM]	MIC ([1]; Table 8) [µM]	MIC ([2]; Table 8, cation adjusted Mueller Hinton Broth + 0.002% Tween-80, 35° C.) [µM]
CCCCCCc1ccc2cc(C)c(C(=O)N[C@@H](CCN)C(=O)N(C)[C@@H]3C(=O)N[C@@H](C)C(=O)N[C@H](C(=O)NCC#N)Cc4ccc(OCCN)c(c4)-c4cc3ccc4OCCN)cc2c1 (racemic) [Compound 400, rac-(8S,11S,14S)-3,18-bis(2-aminoethoxy)-N-(cyanomethyl)-11-methyl-14-[methyl-[rac-(2S)-4-amino-2-[(7-hexyl-3-methyl-naphthalene-2-carbonyl)amino]butanoyl]amino]-10,13-dioxo-9,12-diazatricyclo[13.3.1.12,6]icosa-1(18),2(20),3,5,15(19),16-hexaene-8-carboxamide]	0.047	0.25	–	–
Cc1nc(-c2ccc(C(C)(C)C)cc2)ncc1C(=O)N[C@@H](CCN)C(=O)N[C@@H]1C(=O)N[C@@H](C)C(=O)N[C@H](C(=O)NCC#N)Cc2ccc(OCCN)c(c2)-c2cc1ccc2OCCN (racemic) [Compound 472, rac-(8S,11S,14S)-3,18-bis(2-aminoethoxy)-N-(cyanomethyl)-11-methyl-10,13-dioxo-14-[[rac-(2S)-4-amino-2-[[2-(4-tert-butylphenyl)-4-methyl-pyrimidine-5-carbonyl]amino]butanoyl]amino]-9,12-diazatricyclo[13.3.1.12,6]icosa-1(18),2(20),3,5,15(19),16-hexaene-8-carboxamide]	0.0085	0.11	–	–
Cc1nc(-c2ccc(C3C4CC5CC(C4)CC3C5)cc2)ncc1C(=O)N[C@@H](CCN)C(=O)N(C)[C@@H]1C(=O)N[C@@H](C)C(=O)N[C@H](C(=O)NCC#N)Cc2ccc(OCCN)c(c2)-c2cc1ccc2OCCN (mixture of isomers) [Compound 239, rac-(8S,11S,14S)-3,18-bis(2-aminoethoxy)-N-(cyanomethyl)-11-methyl-14-[methyl-[rac-(2S)-2-[[2-[4-(2-adamantyl)phenyl]-4-methyl-pyrimidine-5-carbonyl]amino]-4-amino-butanoyl]amino]-10,13-dioxo-9,12-diazatricyclo[13.3.1.12,6]icosa-1(18),2(20),3,5,15(19),16-hexaene-8-carboxamide]	0.015	0.12	–	–
CCCCCOc1ccc(-c2nc(C)c(C(=O)N[C@@H](CCN)C(=O)N(C)[C@@H]3C(=O)N[C@@H](C)C(=O)N[C@H](C(=O)O)Cc4ccc(OCCN)c(c4)-c4cc3ccc4OCCN)c(C)n2)cc1 (racemic) [Compound 638, rac-(8S,11S,14S)-3,18-bis(2-aminoethoxy)-11-methyl-14-[methyl-[rac-(2S)-4-amino-2-[[4,6-dimethyl-2-(4-pentoxyphenyl)pyrimidine-5-carbonyl]amino]butanoyl]amino]-10,13-dioxo-9,12-diazatricyclo [13.3.1.12,6]icosa-1(18),2(20),3,5,15(19), 16-hexaene-8-carboxylic acid]	–	–	0.19	0.22
Cc1nc(-c2ccc(C3CCOCC3)cc2)ncc1C(=O)N[C@@H](CCN)C(=O)N(C)[C@@H]1C(=O)N[C@@H](C)C(=O)N[C@H](C(=O)NCC#N)Cc2ccc(OCCN)c(c2)-c2cc1ccc2OCCN (racemic) [Compound 231, rac-(8S,11S,14S)-3,18-bis(2-aminoethoxy)-N-(cyanomethyl)-11-methyl-14-[methyl-[rac-(2S)-4-amino-2-[[4-methyl-2-(4-tetrahydropyran-4-ylphenyl)pyrimidine-5-carbonyl]amino]butanoyl]amino]-10,13-dioxo-9,12-diazatricyclo[13.3.1.12,6]icosa-1(18),2(20),3,5,15(19),16-hexaene-8-carboxamide]	0.35	1.4	–	–
